{
  "source": "patent US8592477B2",
  "about": "“Polymorphic form of rotigotine and process for production” (UCB Pharma GmbH, priority 2007, dated 2013)",
  "key": {"[1]": {"test": "Solubility in EtOH at room temperature", "type": "physicochemical", "details": "form (II) vs form (I)"}, "[2]": {"test": "Thermodynamic stability from DSC data (melting point, enthalpy of fusion, Burger-Ramberger rules)", "type": "physicochemical", "details": "heating rate 10° C./min, 30° C. to 140° C., all considered temperatures", "protocol": "Further, differential scanning calorimetry (DSC) data reveal the difference between the two polymorphic forms of Rotigotine (FIGS. 7 and 8). […] Therefore, the two polymorphs of Rotigotine appear to be monotropically related.\nThermal behavior investigations of Rotigotine of polymorphic form (I) (batch 1608726) and of polymorphic form (II) (batch 7769396) were performed on a Mettler Toledo DSC system and on a TA instrument (Q-1000). The analyses were carried out with a heating rate of 10° C./min in pierced aluminum crucibles in a temperature range from 30° C. to 140° C.\nIn sum, the two polymorphic forms of Rotigotine can be differentiated by their respective melting point and their respective enthalpy of fusion. […] Therefore, the two polymorphs of Rotigotine are most probably monotropically related."}},
  "data": [
    {"compound": "CCCN(CCc1cccs1)[C@H]1CCc2c(O)cccc2C1", "note": "[polymorphic form (II), (−)-5,6,7,8-tetrahydro-6-[propyl-[2-(2-thienyl)ethyl]-amino]-1-naphthalenol]", "values": [
      {"measurement": "solubility in EtOH relative to polymorphic form (I)", "setting": "[1]", "result": "at least five times lower"},
      {"measurement": "thermodynamic stability relative to the other polymorph", "setting": "[2]", "result": "thermodynamically more stable than polymorphic form (I)"}
    ]}
  ]
}
